Measured values as given in patent US20040048866A1 (priority 2002, published 2004).

System: not given
Assay: not given
Conditions: not given

SMILES | melting point [°C]
OCc1cccc(Oc2nn(Cc3ccccc3)c3ccccc23)n1 [Example 2, {6-[(1-benzyl-1H-indazol-3-yl)oxy]-2-pyridinyl}methanol] | 156 to 158
Clc1ccc(NN=Cc2ccc(Oc3nn(Cc4ccccc4)c4ccccc34)o2)nn1 [Example 3, 5-[(1-benzyl-1H-indazol-3-yl)oxy]-2-furaldehyde (6-chloro-3-pyridazinyl)hydrazone] | 200 to 202
O=C(O)c1ccc(Oc2nn(Cc3ccccc3)c3ccccc23)o1 [Example 4, 5-[(1-benzyl-1H-indazol-3-yl)oxy]-2-furoic acid] | 162 to 165
OCc1ccc(Cn2nc(OCc3ccccc3)c3ccccc32)o1 [Example 29, (5-{[3-(benzyloxy)-1H-indazol-1-yl]methyl}-2-furyl)methanol] | 80 to 82
O=[N+]([O-])c1ccc(Oc2nn(Cc3ccccc3F)c3ncccc23)nc1 [Example 34, 1-(2-fluorobenzyl)-3-[(5-nitro-2-pyridinyl)oxy]-1H-pyrazolo[3,4-b]pyridine] | 111 to 113
O=[N+]([O-])c1cccnc1Oc1nn(Cc2ccccc2F)c2ncccc12 [Example 35, 1-(2-fluorobenzyl)-3-[(3-nitro-2-pyridinyl)oxy]-1H-pyrazolo[3,4-b]pyridine] | 115 to 117

Molecular target: T1, α1 and β1 subunits of guanylate cyclase (sGC), expressed in Sf9 cells (Homo sapiens, UniProt Q02108+Q02153)
T1 construct: made in house; host or cells: Sf9 insect cells (baculovirus co-infection); high-speed supernatant used unpurified
T1 sequence (Q02108 1-690): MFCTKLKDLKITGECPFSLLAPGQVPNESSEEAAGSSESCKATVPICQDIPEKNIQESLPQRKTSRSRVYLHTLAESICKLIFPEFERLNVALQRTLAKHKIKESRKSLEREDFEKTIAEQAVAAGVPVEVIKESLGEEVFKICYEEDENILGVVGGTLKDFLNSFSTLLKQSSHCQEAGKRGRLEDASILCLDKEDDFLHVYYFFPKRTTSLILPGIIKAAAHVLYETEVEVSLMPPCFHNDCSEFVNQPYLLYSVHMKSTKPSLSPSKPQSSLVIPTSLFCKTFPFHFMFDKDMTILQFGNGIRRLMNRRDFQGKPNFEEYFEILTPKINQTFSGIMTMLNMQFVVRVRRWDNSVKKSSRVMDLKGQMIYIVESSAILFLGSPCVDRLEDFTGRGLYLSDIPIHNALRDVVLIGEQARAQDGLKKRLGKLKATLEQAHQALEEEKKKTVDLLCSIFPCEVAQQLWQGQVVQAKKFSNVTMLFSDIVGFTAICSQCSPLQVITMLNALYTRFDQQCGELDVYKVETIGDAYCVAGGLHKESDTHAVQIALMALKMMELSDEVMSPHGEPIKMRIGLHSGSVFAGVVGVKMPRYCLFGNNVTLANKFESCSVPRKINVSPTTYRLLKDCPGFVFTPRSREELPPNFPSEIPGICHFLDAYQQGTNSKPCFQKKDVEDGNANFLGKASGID
T1 sequence (Q02153 1-619): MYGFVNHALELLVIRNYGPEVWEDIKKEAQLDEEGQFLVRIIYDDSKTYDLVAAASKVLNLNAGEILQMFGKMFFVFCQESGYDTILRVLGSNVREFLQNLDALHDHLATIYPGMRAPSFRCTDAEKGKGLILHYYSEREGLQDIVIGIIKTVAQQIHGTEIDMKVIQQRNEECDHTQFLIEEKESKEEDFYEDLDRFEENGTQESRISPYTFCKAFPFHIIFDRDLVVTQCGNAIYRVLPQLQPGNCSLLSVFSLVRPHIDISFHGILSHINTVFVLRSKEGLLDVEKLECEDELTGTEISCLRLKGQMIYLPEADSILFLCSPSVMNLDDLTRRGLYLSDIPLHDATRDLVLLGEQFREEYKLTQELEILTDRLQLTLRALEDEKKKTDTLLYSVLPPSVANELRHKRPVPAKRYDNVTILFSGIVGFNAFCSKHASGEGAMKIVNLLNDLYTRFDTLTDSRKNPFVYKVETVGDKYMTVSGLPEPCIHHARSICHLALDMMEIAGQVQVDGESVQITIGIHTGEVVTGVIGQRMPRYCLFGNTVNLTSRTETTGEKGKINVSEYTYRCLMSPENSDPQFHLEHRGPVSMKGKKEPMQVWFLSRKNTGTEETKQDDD
Assay: Guanylate Cyclase Assay (formation of cyclic GMP from GTP)
Format: biochemical
Conditions: (activity at 100 μM with 1 μM SNP − activity at 100 μM)/(activity of SNP at 1 μM − basal activity of sGC)
Method: Sf9 cells were cultured in Sf-90011 medium supplemented with 10% (v/v) fetal calf serum at 28° C. to give a count of 6×10^5 cells/ml. The cells were then infected with a mixture of the virus stocks for the α1 and β1 subunits of guanylate cyclase at a multiplicity of infection of 0.1 pfu/cell. The cells were harvested 72 hours after infection and were pelleted by centrifugation. The resulting cell pellets were homogenized with Polytron homogenizer in 3 volumes of 20 mM Tris-HCl (pH 7.6) containing 1 mM EDTA, 5 mM dithiothreitol, 90 mM NaCl, 10% glycerol, and protease inhibitors mix (Roche Molecular Biochemicals). The homogenate was centrifuged at 50,000×g for 60 minutes and the supernatant was aliquotted and stored at −80° C.
Compounds of the present invention were dissolved in DMSO to make 100 mM and saved as stocks at −20° C. When compounds were tested, 10-fold concentrated solutions with 10% DMSO were prepared. 10 μl of 10-fold concentrated compound solutions were added to the reaction mixture total of 100 μl.
Guanylate cyclase activity was measured by the formation of cyclic GMP from GTP in a total volume of 100 μl. Guanylate cyclase-expressed Sf9 cell high-speed supernatant (Sf9 high-speed sup) was used as an enzyme source for the assay. The reaction mixture containing 0.1 μl enzyme of Sf9 high-speed sup, compound solution, 50 mM Tris-HCl (pH 7.6), 4 mM MgCl2, 0.5 mM IBMX, 15 mM creatine phosphate, 20 μg creatine phosphokinase, 0.1% BSA and 1 mM GTP were incubated at 37° C. for 15 minutes. After the reaction, 0.9 ml of 50 mM sodium acetate buffer (pH 5.8) was added followed by boiling for 3 minutes to stop the reaction. The solution was centrifuged at 3000 rpm for 15 minutes at room temperature and cyclic GMP in 20 μl of the resulting supernatant was measured according to the protocol of Amersham cyclic GMP enzymeimmunoassay system (Amersham, RPN 226).
Compounds of the present invention were tested at 100 μM with and without 1 μM of sodium nitroprusside (SNP). YC-1 was included as a standard for each assay. The data was normalized with the activity of 100 μM YC-1 (without SNP) as 100%. Mean basal efficacy, in Table 1, was expressed as a percentage of 100 μM YC-1 (without SNP).
The mean activation, in Table 1, was calculated based on the formula: (activity of compound of the present invention at 100 μM with 1 μM SNP)−(activity of compound of on at 100 μM)/(activity of SNP at 1 μM)−(basal activity of sGC).

SMILES | Mean activation at 100 μM
OCc1cccc(Oc2nn(Cc3ccccc3)c3ccccc23)n1 [Example 2, {6-[(1-benzyl-1H-indazol-3-yl)oxy]-2-pyridinyl}methanol] | 1.8
Clc1ccc(NN=Cc2ccc(Oc3nn(Cc4ccccc4)c4ccccc34)o2)nn1 [Example 3, 5-[(1-benzyl-1H-indazol-3-yl)oxy]-2-furaldehyde (6-chloro-3-pyridazinyl)hydrazone] | 1.7
O=C(O)c1ccc(Oc2nn(Cc3ccccc3)c3ccccc23)o1 [Example 4, 5-[(1-benzyl-1H-indazol-3-yl)oxy]-2-furoic acid] | 1.5
O=C(NCCCn1ccnc1)c1ccccc1Oc1nn(Cc2ccccc2)c2ccccc12 [Example 24, 2-[(1-benzyl-1H-indazol-3-yl)oxy]-N-[3-(1H-imidazol-1-yl)propyl]benzamide] | 1.7
O=C(NN1CCOCC1)c1ccccc1Oc1nn(Cc2ccccc2)c2ccccc12 [Example 25] | 1.9
O=C(NCC1CCCCC1O)c1ccccc1Oc1nn(Cc2ccccc2)c2ccccc12 (stereo not drawn) [Example 26, 2-[(1-benzyl-1H-indazol-3-yl)oxy]-N-[(2-hydroxycyclohexyl)methyl]benzamide] | 2.0
C(=Cc1ccccc1)Cn1nc(OCc2ccccc2)c2ccccc21 [Example 27, 3-(benzyloxy)-1-[3-phenyl-2-propenyl]-1H-indazole] | 1.7
O=C(O)c1ccc(Cn2nc(OCc3ccccc3)c3ccccc32)o1 [Example 28, 5-{[3-(benzyloxy)-1H-indazol-1-yl]methyl}-2-furoic acid] | 1.9
OCc1ccc(Cn2nc(OCc3ccccc3)c3ccccc32)o1 [Example 29, (5-{[3-(benzyloxy)-1H-indazol-1-yl]methyl}-2-furyl)methanol] | 1.4
O=[N+]([O-])c1ccc(Oc2nn(Cc3ccccc3F)c3ncccc23)nc1 [Example 34, 1-(2-fluorobenzyl)-3-[(5-nitro-2-pyridinyl)oxy]-1H-pyrazolo[3,4-b]pyridine] | 1.0
O=[N+]([O-])c1cccnc1Oc1nn(Cc2ccccc2F)c2ncccc12 [Example 35, 1-(2-fluorobenzyl)-3-[(3-nitro-2-pyridinyl)oxy]-1H-pyrazolo[3,4-b]pyridine] | 1.9
OCc1ccc(-c2nn(Cc3ccccc3)c3ccccc23)o1 [YC-1, reference compound] | 2.7

Same assay, conditions: compound at 100 μM with 1 μM sodium nitroprusside (SNP); normalized to 100 μM YC-1 (without SNP) as 100%

SMILES | Mean efficacy at 100 μM with 1 μM of SNP, [% of YC-1]
OCc1cccc(Oc2nn(Cc3ccccc3)c3ccccc23)n1 [Example 2, {6-[(1-benzyl-1H-indazol-3-yl)oxy]-2-pyridinyl}methanol] | 20 % of YC-1
Clc1ccc(NN=Cc2ccc(Oc3nn(Cc4ccccc4)c4ccccc34)o2)nn1 [Example 3, 5-[(1-benzyl-1H-indazol-3-yl)oxy]-2-furaldehyde (6-chloro-3-pyridazinyl)hydrazone] | 17 % of YC-1
O=C(O)c1ccc(Oc2nn(Cc3ccccc3)c3ccccc23)o1 [Example 4, 5-[(1-benzyl-1H-indazol-3-yl)oxy]-2-furoic acid] | 26 % of YC-1
O=C(NCCCn1ccnc1)c1ccccc1Oc1nn(Cc2ccccc2)c2ccccc12 [Example 24, 2-[(1-benzyl-1H-indazol-3-yl)oxy]-N-[3-(1H-imidazol-1-yl)propyl]benzamide] | 12 % of YC-1
O=C(NN1CCOCC1)c1ccccc1Oc1nn(Cc2ccccc2)c2ccccc12 [Example 25] | 14 % of YC-1
O=C(NCC1CCCCC1O)c1ccccc1Oc1nn(Cc2ccccc2)c2ccccc12 (stereo not drawn) [Example 26, 2-[(1-benzyl-1H-indazol-3-yl)oxy]-N-[(2-hydroxycyclohexyl)methyl]benzamide] | 12 % of YC-1
C(=Cc1ccccc1)Cn1nc(OCc2ccccc2)c2ccccc21 [Example 27, 3-(benzyloxy)-1-[3-phenyl-2-propenyl]-1H-indazole] | 18 % of YC-1
O=C(O)c1ccc(Cn2nc(OCc3ccccc3)c3ccccc32)o1 [Example 28, 5-{[3-(benzyloxy)-1H-indazol-1-yl]methyl}-2-furoic acid] | 27 % of YC-1
OCc1ccc(Cn2nc(OCc3ccccc3)c3ccccc32)o1 [Example 29, (5-{[3-(benzyloxy)-1H-indazol-1-yl]methyl}-2-furyl)methanol] | 11 % of YC-1
O=[N+]([O-])c1ccc(Oc2nn(Cc3ccccc3F)c3ncccc23)nc1 [Example 34, 1-(2-fluorobenzyl)-3-[(5-nitro-2-pyridinyl)oxy]-1H-pyrazolo[3,4-b]pyridine] | 7 % of YC-1
O=[N+]([O-])c1cccnc1Oc1nn(Cc2ccccc2F)c2ncccc12 [Example 35, 1-(2-fluorobenzyl)-3-[(3-nitro-2-pyridinyl)oxy]-1H-pyrazolo[3,4-b]pyridine] | 28.1 % of YC-1
OCc1ccc(-c2nn(Cc3ccccc3)c3ccccc23)o1 [YC-1, reference compound] | 224 % of YC-1

Same assay, conditions: compound at 100 μM without SNP; normalized to activity of 100 μM YC-1 (without SNP) as 100%

SMILES | Mean basal efficacy at 100 μM, [% of YC-1]
O=C(NN1CCOCC1)c1ccccc1Oc1nn(Cc2ccccc2)c2ccccc12 [Example 25] | 4 % of YC-1
OCc1ccc(-c2nn(Cc3ccccc3)c3ccccc23)o1 [YC-1, reference compound] | 100 % of YC-1

Same assay, conditions: compound at 100 μM without SNP; normalized to activity of 100 μM YC-1 (without SNP) as 100%; read-out: Mean basal efficacy at 100 μM, [% of YC-1]

SMILES | Emax at 100 µM [%]
OCc1cccc(Oc2nn(Cc3ccccc3)c3ccccc23)n1 [Example 2, {6-[(1-benzyl-1H-indazol-3-yl)oxy]-2-pyridinyl}methanol] | 0
Clc1ccc(NN=Cc2ccc(Oc3nn(Cc4ccccc4)c4ccccc34)o2)nn1 [Example 3, 5-[(1-benzyl-1H-indazol-3-yl)oxy]-2-furaldehyde (6-chloro-3-pyridazinyl)hydrazone] | 0
O=C(O)c1ccc(Oc2nn(Cc3ccccc3)c3ccccc23)o1 [Example 4, 5-[(1-benzyl-1H-indazol-3-yl)oxy]-2-furoic acid] | 0
O=C(NCCCn1ccnc1)c1ccccc1Oc1nn(Cc2ccccc2)c2ccccc12 [Example 24, 2-[(1-benzyl-1H-indazol-3-yl)oxy]-N-[3-(1H-imidazol-1-yl)propyl]benzamide] | 5
O=C(NCC1CCCCC1O)c1ccccc1Oc1nn(Cc2ccccc2)c2ccccc12 (stereo not drawn) [Example 26, 2-[(1-benzyl-1H-indazol-3-yl)oxy]-N-[(2-hydroxycyclohexyl)methyl]benzamide] | 1
C(=Cc1ccccc1)Cn1nc(OCc2ccccc2)c2ccccc21 [Example 27, 3-(benzyloxy)-1-[3-phenyl-2-propenyl]-1H-indazole] | -2
O=C(O)c1ccc(Cn2nc(OCc3ccccc3)c3ccccc32)o1 [Example 28, 5-{[3-(benzyloxy)-1H-indazol-1-yl]methyl}-2-furoic acid] | 6
OCc1ccc(Cn2nc(OCc3ccccc3)c3ccccc32)o1 [Example 29, (5-{[3-(benzyloxy)-1H-indazol-1-yl]methyl}-2-furyl)methanol] | 1
O=[N+]([O-])c1ccc(Oc2nn(Cc3ccccc3F)c3ncccc23)nc1 [Example 34, 1-(2-fluorobenzyl)-3-[(5-nitro-2-pyridinyl)oxy]-1H-pyrazolo[3,4-b]pyridine] | 4
O=[N+]([O-])c1cccnc1Oc1nn(Cc2ccccc2F)c2ncccc12 [Example 35, 1-(2-fluorobenzyl)-3-[(3-nitro-2-pyridinyl)oxy]-1H-pyrazolo[3,4-b]pyridine] | 7.1
